The test system of one data set is retinal ganglion cells. The note with it: animals, recent study (glaucoma background); cited from earlier work.
Data set [1] deals with retinal ganglion cells (RGCs). The method, then:
(§1) Study outline: The neuroprotective effects of nicotinamide riboside were examined in EAE mice with optic neuritis. […] To induce EAE, mice were immunized several days later with 300 μg PLP emulsified in complete Freund's adjuvant (CFA), and control mice (without EAE) were mock-immunized with phosphate buffered saline (PBS) in CFA. All mice received 200 ng intraperitoneal pertussis toxin (PT) on the day of immunization (day 0) and again on day 2.
(§2) Eyes were treated with nicotinamide riboside by intravitreal (ivt) injections with a volume of 0.8 μl/injection of a stock solution of either 0.1 M or 0.4 M nicotinamide riboside in PBS (Groups 2, 4 and 5). […] Treament with nicotinamide riboside, as well as PBS control injections, were given ivt on days 0, 4, 7 and 11. Mice were scored daily for clinical EAE, and were sacrificed on day 14 by overdose with ketamine and xylazine.
(§3) Retinas were dissected and whole-mounted for fluorescent microscopy. RGC numbers were quantified by counting FG-labeled cells in 12 standardized fields in each retina. Optic nerves were dissected and processed for histology. Cut sections stained by H & E were evaluated for the presence of inflammatory cells to determine acute optic neuritis. RGCs were compared between PBS-treated and nicotinamide riboside-treated eyes with optic neuritis to determine whether nicotinamide riboside prevents loss of neurons.

Data set [2] has as its system EAE mice with optic neuritis. The experiment in a line: Incidence of optic neuritis (inflammatory cell infiltration of optic nerve) and clinical EAE, nicotinamide riboside. It counts as in vivo, SJL/J mice. The method, then: as §1, §2, §3
Data set [3] has as its system retinal ganglion cells (RGCs). Briefly: Retinal ganglion cell (RGC) counts in EAE optic neuritis model, resveratrol intravitreal. It counts as in vivo, SJL/J mice. The conditions noted are these: for RGC numbers: EAE eyes with optic neuritis, 0.8 μl intravitreal days 0, 3, 7, 11, day 14. The method, then:
(§4) The experimental design is diagrammed in FIG. 21.
Three test doses were diluted:
(§5) Retinas were diessected and whole-mounted for fluorescent microscopy. […] Optic nerves were dissected and processed for histology. […] RGCs were compared between PBS-treated and resveratrol-treated eyes with optic neuritis to determine whether resveratrol prevents loss of neurons.

Data set [4] has as its system EAE mice with optic neuritis. Briefly: Clinical EAE score and incidence of optic neuritis, resveratrol intravitreal. The conditions noted are these: for Peak EAE Score For Individual Mice: five point scale. The class given is in vivo, SJL/J mice.
Excerpt: as §4
Mice were scored daily for clinical EAE on a five point scale: no disease=0; partial tail paralysis=0.5; tail paralysis or waddling gait=1.0; partial tail paralysis and waddling gait=1.5; tail paralysis and waddling gait=2.0; partial limb paralysis=2.5; paralysis of one limb=3.0; paralysis of one limb and partial paralysis of another=3.5; paralysis of two limbs=4.0; moribund state=4.5; death=5.0.
as §5

Data set [5] is described as follows: Measured resveratrol concentration in Captisol solutions and reconstitution of lyophilized product. The class given is physicochemical. The method, then: Lyophilized vials containing 10% Captisol control vehicle were also manufactured. […] Lyophilized vials containing 40% Captisol control vehicle were also manufactured.
The filtered solutions were dispensed into vials (1.0 mL solution into 3 mL vial, Wheaton #223684), and lyophilized. At the end of the lyophilization cycle, the vials were sealed under vacuum and a cap crimped over the septa.
The lyophilized resveratrol product was an off-white cake. The material reconstituted in ˜20 seconds after the addition of 1.0 mL water. […] The lyophilized control vehicle product was a white cake. The material reconstituted in ˜20 seconds after the addition of 1.0 mL water. The reconstituted control vehicle was clear, with no visible particulates, and having a pH of 5.82.
The solution was stirred for 35 minutes, followed by sonication for 1 hour. The solution was stirred for an additional 50 minutes, followed by sonication for an additional hour. At this point, solid material was still present in the sample. An aliquot was removed for analysis. […] Because the solution appeared cloudy at this time, three portions were separated to try alternate mixing methods. Approximately 200 mL was transferred to a 500 mL volumetric flask and was sonicated for 45 min, approximately 300 mL was vigorously mixed with an overhead mixer for 90 minutes, and approximately 100 mL was homogenized for 25 minutes. None of the three portions appeared clear. […] The portions were combined and were stirred at ambient temperature overnight protected from light. The following morning, using an aseptic technique in the laminar flow hood, the solution was sterile filtered via a Nalgene 90 mm filter unit (Cat# 167-0020; […]).

Where [6] appears, read: optic nerve, acute optic neuritis in EAE.

Values joined by “and” are separate entries in the source; they are usually repeats but may differ in a detail not shown here. Equal values may be shown once. Read-outs that look alike come from different tables or passages of the source.

As for `N=C(N)NN` [aminoguanidine], the “loss of retinal ganglion cells” value in the data set with retinal ganglion cells is “reduction in the loss of retinal ganglion cells”.
As to `NC(=O)c1ccc[n+]([C@@H]2O[C@H](CO)[C@@H](O)[C@H]2O)c1` [nicotinamide riboside], the “Toxicity to RGCs” value in data set [1] (mouse, in vivo) is reported as “not toxic”. Also, in data set [1] (non-EAE eyes treated with nicotinamide riboside (Group 2) vs control eyes (Group 1)), the “RGC numbers vs control eyes” value is reported as “no difference”. For the same compound, in data set [2] (nicotinamide riboside treated mice vs controls), the “Incidence of optic neuritis and clinical EAE vs controls” value is on record as “did not differ”. For the same compound, in data set [2] (setting [6]), the Inflammatory cell infiltration result is “does not prevent”.
Turning to `Oc1ccc(/C=C/c2cc(O)cc(O)c2)cc1` [resveratrol, 3,5,4′-Trihydroxy-trans-stilbene], the figures for the RGC numbers in data set [3] (38 μM resveratrol), in data set [3] (77 μM resveratrol) and in data set [3] (600 μM resveratrol) were 452±136 RGCs, 585±198 RGCs and 644±148 RGCs, respectively. Further, the “Toxicity to RGCs” value in data set [3] (mouse, in vivo) is given as “not toxic”. For the same compound, the “RGC numbers vs control eyes” value in data set [3] (non-EAE eyes treated with resveratrol vs control eyes) is “no difference”. For the same compound, the “Peak EAE Score For Individual Mice” value in data set [4] (Control (non-EAE) mice, 38 μM resveratrol intravitreal) was 0; in data set [4] (Control (non-EAE) mice, 600 μM resveratrol intravitreal), 0; in data set [4] (EAE mice, 38 μM resveratrol intravitreal) it was 1.5 and 3 (2×) and 0 and 5 and 2.5 and 1 (2×); in data set [4] (EAE mice, 77 μM resveratrol intravitreal) it was 2 (4×) and 2.5 (3×) and 0 and 3.5 and 5 and 1.5; in data set [4] (EAE mice, 600 μM resveratrol intravitreal) it was 2.5 and 2 (2×) and 5 and 4.5 and 1.5 and 0.5. In addition, in data set [4] (setting [6]), the Inflammatory cell infiltration result is “does not prevent”. Besides, the “Incidence of optic neuritis and clinical EAE vs controls” value in data set [4] (resveratrol treated mice vs controls) is recorded as “did not differ”. Besides, the “concentration of resveratrol in solution” value in data set [5] (10% Captisol lyophilisate reconstituted with 1.0 mL water, pH 5.91) turned out to be 14.4 mM; in data set [5] (10% Captisol, after 0.20 μm filtration, pH 4.83), 14.9 mM; in data set [5] (10% Captisol, mixed 1 hour at ambient temperature, initial solution, pH 5.02 (target 20 mM)), 15.4 mM; in data set [5] (40% Captisol, portion homogenized for 25 minutes), 74 mM; in data set [5] (40% Captisol, stirred overnight at ambient temperature, sterile filtered) it was 168 mM. Besides, the “concentration of resveratrol in solution (HPLC)” value in data set [5] (40% Captisol, after stirring and sonication, solid still present, pH 4.76 (target 175 mM)) was determined as 55 mM.

Values taken from patent publication US20060292099A1, “Treatment of eye disorders with sirtuin modulators” (priority 2005, published 2006).
